The text below walks through data of article PMC12475274, “Harnessing indole scaffolds to identify small-molecule IRE1α inhibitors modulating XBP1 mRNA splicing” (Nature Communications, 2025).

One experiment has as its system IRE1α. To be noted: Fig. 1b; read-out: IC50 of reported IRE1α inhibitor; cited from earlier work.
In experiment [1] the test system is IRE1α transcription level in A549 cells. The experiment in a line: RT-qPCR of IRE1α transcription level, A549. In kind it is cell-based, human. To be noted: A549 cells. As for the experimental part:
(§1) A549 cells, HCT 116 cells, and HT-29 cells were collected and seeded in 6-well plates at a density of 5 × 10^5 cells per well and cultured overnight to attach, then treated with compound or DMSO for 2 h, then 0.5 μg/mL final concentration of tunicamycin (Tm, MP Biomedi, 0215002805) were added to induce the ER stress for 2 h. After treatment, total RNA was purified using an RNeasy mini kit (Qiagen, 74106). 500 ng of total RNA was used for reverse transcription using the High-Capacity cDNA Reverse Transcription Kits (Thermo Fisher, 4368814). cDNA was diluted 1: 5 using RNase-free water, and 1 μL CDNA was used for each qPCR reaction. The qPCR was performed using PowerUp™ SYBR™ Green Master Mix (Thermo Fisher, A25742) with 10 µL reaction volume using Bio-Rad CFX96 Real-Time PCR Detection System following the standard cycling mode (primer Tm ≥ 60 °C) on the manufacturer’s protocol. Data was analyzed using the 2^- ΔΔCt method. The primers used are listed in Supplementary Table S3. The inhibition % was calculated by using the equation: inhibition% = 100× (normalized Tm control - normalized of the sample)/(normalized Tm control - normalized DMSO control). Tm control: Cells treated with tunicamycin; DMSO control: Cells treated with DMSO only.
(In qPCR the cycle at which signal appears reflects the starting amount.)

Experiment [2] concerns XBP1 mRNA splicing in HT-29 cells. The experiment in a line: RT-qPCR of ER stress-induced XBP1 mRNA splicing, HT-29. In kind it is cell-based, human. The following applies: HT-29 cells. The protocol:
as §1

In experiment [3] the test system is XBP1 mRNA splicing in HCT 116 cells. Description: RT-qPCR of ER stress-induced XBP1 mRNA splicing, HCT 116. In kind it is cell-based, human. The following applies: HCT 116 cells. The protocol:
as §1

The subject of experiment [4] is IRE1α transcription level in HT-29 cells. Description: RT-qPCR of IRE1α transcription level, HT-29. In kind it is cell-based, human. The following applies: HT-29 cells. The protocol:
as §1

A further experiment deals with IRE1β (ERN2) (Homo sapiens, UniProt Q76MJ5). Description: LanthaScreen Eu kinase binding assay, IRE1β. The protocol:
LanthaScreen^TM Eu kinase binding assays were conducted by SelectScreen Kinase Profiling Services (Thermo Fisher) using Alexa Fluor conjugated kinase tracer, tagged kinase protein, and Eu-labeled anti-tag antibody. The binding of the tracer to the kinase will form the tracer-kinase complex, resulting in a high FRET signal with the Eu-labeled anti-tag antibody. Displacement of the tracer by a kinase inhibitor led to a decreased FRET signal. […] Buffer A containing 50 mM HEPES pH 7.5, 0.01% BRIJ-35, 10 mM MgCl2, and 1 mM EGTA was used.
(§2) Kinase profiling was conducted by the SelectScreen Kinase Profiling Services (Thermo Fisher), using Z′-LYTE, Adapta, or LanthaScreen Eu Kinase Binding Assay for different kinases. The kinome phylogenetic tree was generated using the KinMap web portal.

The next experiment has as its target CAMK1D (CaMKI delta) (Homo sapiens, UniProt Q8IU85). The experiment in a line: Kinase profiling (SelectScreen), ZLYTE. In kind it is biochemical. The protocol:
as §2

The target in another experiment is FGFR1 (Homo sapiens, UniProt P11362). The experiment in a line: Kinase profiling (SelectScreen), ZLYTE. It counts as biochemical. The protocol: as §2
In a further experiment the target is LCK (Homo sapiens, UniProt P06239). Description: Kinase profiling (SelectScreen), ZLYTE. In kind it is biochemical. As for the experimental part:
as §2

A further experiment has as its target MAPK14 (p38 alpha) (Homo sapiens, UniProt Q16539). The experiment in a line: Kinase profiling (SelectScreen), ZLYTE. It counts as biochemical. To be noted: IA107 at 5 μM; ATP 100 μM. The protocol: as §2
In a further experiment the target is PLK1 (Homo sapiens, UniProt P53350). Description: Kinase profiling (SelectScreen), ZLYTE. In kind it is biochemical. As for the experimental part:
as §2

The next experiment addresses IKBKB (IKK beta) (Homo sapiens, UniProt O14920). The experiment in a line: Kinase profiling (SelectScreen), ZLYTE. In kind it is biochemical. The protocol:
as §2

The next experiment addresses CHEK1 (CHK1) (Homo sapiens, UniProt O14757). Description: Kinase profiling (SelectScreen), ZLYTE. It counts as biochemical. The protocol:
as §2

For a further experiment, the target named is MAPK8 (JNK1) (Homo sapiens, UniProt P45983). The experiment in a line: Kinase profiling (SelectScreen), ZLYTE. It counts as biochemical. The following applies: IA107 at 5 μM; ATP 100 μM. As for the experimental part: as §2
Chain of MAPK8 (JNK1) (P45983 whole entry): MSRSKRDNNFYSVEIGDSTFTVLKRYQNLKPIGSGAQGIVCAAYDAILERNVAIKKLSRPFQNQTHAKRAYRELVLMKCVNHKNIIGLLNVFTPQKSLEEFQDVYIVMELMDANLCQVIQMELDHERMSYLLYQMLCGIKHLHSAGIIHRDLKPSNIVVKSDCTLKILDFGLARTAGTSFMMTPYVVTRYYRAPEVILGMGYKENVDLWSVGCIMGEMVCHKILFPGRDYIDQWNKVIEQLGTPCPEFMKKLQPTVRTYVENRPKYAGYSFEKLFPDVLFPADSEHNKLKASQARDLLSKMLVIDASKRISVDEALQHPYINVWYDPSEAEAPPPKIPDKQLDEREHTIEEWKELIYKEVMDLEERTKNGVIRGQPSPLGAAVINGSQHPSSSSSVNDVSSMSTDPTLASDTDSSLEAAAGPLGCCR
The target in another experiment is ERBB2 (HER2) (Homo sapiens, UniProt P04626). The experiment in a line: Kinase profiling (SelectScreen), ZLYTE. It counts as biochemical. The protocol: as §2
Chain of ERBB2 (HER2) (P04626 23-1255): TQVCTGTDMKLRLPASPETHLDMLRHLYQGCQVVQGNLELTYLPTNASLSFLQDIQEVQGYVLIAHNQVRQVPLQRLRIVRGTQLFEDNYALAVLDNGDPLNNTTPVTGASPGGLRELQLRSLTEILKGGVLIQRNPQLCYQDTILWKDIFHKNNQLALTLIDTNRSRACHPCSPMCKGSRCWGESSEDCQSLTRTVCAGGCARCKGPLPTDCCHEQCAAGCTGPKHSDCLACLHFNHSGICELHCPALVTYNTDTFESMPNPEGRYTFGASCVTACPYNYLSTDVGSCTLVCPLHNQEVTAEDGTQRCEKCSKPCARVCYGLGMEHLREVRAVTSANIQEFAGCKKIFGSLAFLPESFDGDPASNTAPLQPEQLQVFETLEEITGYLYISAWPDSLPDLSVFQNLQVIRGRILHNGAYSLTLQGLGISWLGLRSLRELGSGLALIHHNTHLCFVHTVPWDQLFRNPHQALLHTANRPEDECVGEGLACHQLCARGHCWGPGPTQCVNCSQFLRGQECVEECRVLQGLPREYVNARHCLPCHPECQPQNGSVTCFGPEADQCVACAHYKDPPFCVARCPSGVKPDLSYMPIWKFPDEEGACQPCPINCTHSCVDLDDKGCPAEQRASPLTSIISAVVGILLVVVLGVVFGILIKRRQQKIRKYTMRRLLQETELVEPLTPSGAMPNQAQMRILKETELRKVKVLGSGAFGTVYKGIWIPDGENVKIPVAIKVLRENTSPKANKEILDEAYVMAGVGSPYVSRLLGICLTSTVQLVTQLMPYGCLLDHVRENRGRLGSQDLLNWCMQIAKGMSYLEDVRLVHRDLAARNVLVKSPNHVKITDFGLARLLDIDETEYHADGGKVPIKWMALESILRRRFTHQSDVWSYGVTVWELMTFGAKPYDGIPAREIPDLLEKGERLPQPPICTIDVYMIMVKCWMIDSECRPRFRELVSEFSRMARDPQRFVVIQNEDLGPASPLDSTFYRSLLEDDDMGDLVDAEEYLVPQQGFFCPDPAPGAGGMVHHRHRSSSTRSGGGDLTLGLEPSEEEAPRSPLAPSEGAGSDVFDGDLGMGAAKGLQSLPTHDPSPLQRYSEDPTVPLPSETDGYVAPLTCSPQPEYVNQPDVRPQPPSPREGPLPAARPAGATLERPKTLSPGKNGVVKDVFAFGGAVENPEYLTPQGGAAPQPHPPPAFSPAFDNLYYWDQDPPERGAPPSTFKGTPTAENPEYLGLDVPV
A further experiment has as its target AKT1 (PKB alpha) (Homo sapiens, UniProt P31749). Description: Kinase profiling (SelectScreen), ZLYTE. It counts as biochemical. The protocol: as §2
In a further experiment the target is RET (Homo sapiens, UniProt P07949). The experiment in a line: Kinase profiling (SelectScreen), ZLYTE. It counts as biochemical. The protocol:
as §2

The next experiment addresses KIT (Homo sapiens, UniProt P10721). Description: Kinase profiling (SelectScreen), ZLYTE. It counts as biochemical. The protocol:
as §2

For another experiment, the target named is STK4 (MST1) (Homo sapiens, UniProt Q13043). Description: Kinase profiling (SelectScreen), ZLYTE. In kind it is biochemical. The protocol: as §2
Another experiment deals with ROCK1 (Homo sapiens, UniProt Q13464). The experiment in a line: Kinase profiling (SelectScreen), ZLYTE. In kind it is biochemical. The protocol:
as §2

Another experiment has as its target INSR (Homo sapiens, UniProt P06213). Description: Kinase profiling (SelectScreen), ZLYTE. In kind it is biochemical. The protocol: as §2
The target in the next experiment is T1, dephosphorylated IRE1α (Homo sapiens, UniProt O75460).
T1 construct: Human IRE1α kinase and RNase domain (residues 547–977) was subcloned into pLIB plasmid; His tag (with TEV cleavage site) (N, cleaved yes); made in house; host or cells: Sf9 insect cells, baculovirus (Bac-to-Bac)
Description: Microscale thermophoresis (MST), IRE1α. It counts as binding. The protocol:
Dephosphorylated IRE1α protein and phosphorylated IRE1α protein were labeled and purified using Protein Labeling Kit RED-NHS 2nd Generation (NanoTemper, MO-L011), following the manufacturer’s protocol. The labeling buffer contained 50 mM HEPES, pH 7.5, 200 mM NaCl, 2% glycerol, 0.5 mM TCEP, 0.05% tween20. MST experiments were performed using the Monolith Nt.115 instrument (NanoTemper), and binding experiments were conducted according to the instrument’s instructions. Compounds were serially diluted 2-fold and incubated with labeled IRE1α protein at a final concentration of 20 nM. The highest compound concentration measured was 250 μM with a final DMSO concentration of 2.5%. Measurements were carried out using the red detector with 60% excitation power. Data were analyzed using the manufacturer’s software, and results from three individual measurements were merged for analysis.
On the technique in general: In MST a laser heats a spot of the sample, and binding alters the fluorescence response.

For orientation: IC50 means the midpoint of a concentration-inhibition curve. For orientation: inhibition means the relative decrease from the control value, in per cent. The Kd is the concentration at which binding is half-saturated. Higher therefore signals lower affinity.

SMILES strings stand for the structures. Several values for one entry are separate records, joined by “and”; a condition that tells them apart may be missing. Identical values can stand only once. Entries after “also recorded” stand apart in the source; their conditions may differ.

Chain of IRE1β (ERN2) (Q76MJ5 35-926): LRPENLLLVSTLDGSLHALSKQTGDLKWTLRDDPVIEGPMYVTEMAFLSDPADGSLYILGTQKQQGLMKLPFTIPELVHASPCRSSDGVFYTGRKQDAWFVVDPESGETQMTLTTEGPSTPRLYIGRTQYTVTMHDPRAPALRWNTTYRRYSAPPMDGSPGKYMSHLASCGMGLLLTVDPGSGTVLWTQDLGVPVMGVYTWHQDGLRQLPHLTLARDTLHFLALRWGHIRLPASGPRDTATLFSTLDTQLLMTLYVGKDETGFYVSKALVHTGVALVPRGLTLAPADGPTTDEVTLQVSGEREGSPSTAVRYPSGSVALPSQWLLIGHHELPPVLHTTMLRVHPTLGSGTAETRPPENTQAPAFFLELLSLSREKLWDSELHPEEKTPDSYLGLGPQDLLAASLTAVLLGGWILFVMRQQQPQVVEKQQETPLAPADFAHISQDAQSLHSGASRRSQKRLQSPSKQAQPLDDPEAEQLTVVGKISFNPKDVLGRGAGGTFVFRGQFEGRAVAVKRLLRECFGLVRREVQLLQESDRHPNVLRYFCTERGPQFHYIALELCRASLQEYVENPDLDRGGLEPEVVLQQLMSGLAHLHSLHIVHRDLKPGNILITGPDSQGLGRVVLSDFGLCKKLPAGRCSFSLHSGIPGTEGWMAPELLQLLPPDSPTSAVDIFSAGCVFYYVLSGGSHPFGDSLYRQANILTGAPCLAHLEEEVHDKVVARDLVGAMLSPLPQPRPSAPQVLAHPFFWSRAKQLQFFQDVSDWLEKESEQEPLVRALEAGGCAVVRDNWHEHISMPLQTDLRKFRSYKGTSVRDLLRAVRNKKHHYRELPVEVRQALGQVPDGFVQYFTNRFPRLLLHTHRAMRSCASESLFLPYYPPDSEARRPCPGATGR
Chain of CHEK1 (CHK1) (O14757 whole entry): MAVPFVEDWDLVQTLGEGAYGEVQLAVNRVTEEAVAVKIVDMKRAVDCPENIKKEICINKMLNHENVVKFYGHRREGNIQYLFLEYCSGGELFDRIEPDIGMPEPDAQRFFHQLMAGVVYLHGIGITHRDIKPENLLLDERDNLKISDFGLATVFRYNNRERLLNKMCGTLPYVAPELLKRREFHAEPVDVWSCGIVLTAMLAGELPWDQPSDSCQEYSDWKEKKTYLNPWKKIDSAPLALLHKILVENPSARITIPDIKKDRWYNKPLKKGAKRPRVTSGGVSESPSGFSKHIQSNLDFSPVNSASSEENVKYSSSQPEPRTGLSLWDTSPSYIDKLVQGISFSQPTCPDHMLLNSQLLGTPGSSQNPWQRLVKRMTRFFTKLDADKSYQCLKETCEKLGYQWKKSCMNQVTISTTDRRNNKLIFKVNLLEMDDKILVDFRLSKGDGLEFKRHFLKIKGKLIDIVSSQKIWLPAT
Chain of IKBKB (IKK beta) (O14920 whole entry): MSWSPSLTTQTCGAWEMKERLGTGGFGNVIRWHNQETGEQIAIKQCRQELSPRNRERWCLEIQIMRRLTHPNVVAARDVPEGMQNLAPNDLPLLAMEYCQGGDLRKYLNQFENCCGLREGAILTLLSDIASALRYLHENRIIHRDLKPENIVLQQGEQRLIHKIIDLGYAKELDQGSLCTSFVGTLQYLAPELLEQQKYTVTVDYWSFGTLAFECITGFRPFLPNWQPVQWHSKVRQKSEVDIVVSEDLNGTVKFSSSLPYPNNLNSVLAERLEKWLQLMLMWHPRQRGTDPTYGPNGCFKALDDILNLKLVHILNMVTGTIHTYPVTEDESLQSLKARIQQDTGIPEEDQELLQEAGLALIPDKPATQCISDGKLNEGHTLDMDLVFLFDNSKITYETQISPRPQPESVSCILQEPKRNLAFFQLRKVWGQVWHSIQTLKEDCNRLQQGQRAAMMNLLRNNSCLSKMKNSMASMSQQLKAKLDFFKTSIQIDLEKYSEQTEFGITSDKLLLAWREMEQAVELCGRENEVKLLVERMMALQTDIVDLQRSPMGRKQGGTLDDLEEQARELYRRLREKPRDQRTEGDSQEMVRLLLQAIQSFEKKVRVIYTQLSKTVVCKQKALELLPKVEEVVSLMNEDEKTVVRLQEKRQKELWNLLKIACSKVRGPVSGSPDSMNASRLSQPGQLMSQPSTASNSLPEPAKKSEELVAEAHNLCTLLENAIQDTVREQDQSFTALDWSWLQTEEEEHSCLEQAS
Chain of CAMK1D (CaMKI delta) (Q8IU85 whole entry): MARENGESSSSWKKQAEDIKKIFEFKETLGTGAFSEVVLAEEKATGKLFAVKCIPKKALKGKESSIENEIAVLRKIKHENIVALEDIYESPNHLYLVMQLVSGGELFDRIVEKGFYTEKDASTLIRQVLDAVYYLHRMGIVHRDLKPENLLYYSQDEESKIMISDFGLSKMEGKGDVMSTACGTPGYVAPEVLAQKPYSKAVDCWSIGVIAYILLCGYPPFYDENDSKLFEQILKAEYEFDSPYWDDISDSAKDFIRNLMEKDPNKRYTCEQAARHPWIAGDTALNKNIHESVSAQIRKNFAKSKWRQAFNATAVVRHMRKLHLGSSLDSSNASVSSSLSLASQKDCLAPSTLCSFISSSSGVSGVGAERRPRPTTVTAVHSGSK
Chain of AKT1 (PKB alpha) (P31749 whole entry): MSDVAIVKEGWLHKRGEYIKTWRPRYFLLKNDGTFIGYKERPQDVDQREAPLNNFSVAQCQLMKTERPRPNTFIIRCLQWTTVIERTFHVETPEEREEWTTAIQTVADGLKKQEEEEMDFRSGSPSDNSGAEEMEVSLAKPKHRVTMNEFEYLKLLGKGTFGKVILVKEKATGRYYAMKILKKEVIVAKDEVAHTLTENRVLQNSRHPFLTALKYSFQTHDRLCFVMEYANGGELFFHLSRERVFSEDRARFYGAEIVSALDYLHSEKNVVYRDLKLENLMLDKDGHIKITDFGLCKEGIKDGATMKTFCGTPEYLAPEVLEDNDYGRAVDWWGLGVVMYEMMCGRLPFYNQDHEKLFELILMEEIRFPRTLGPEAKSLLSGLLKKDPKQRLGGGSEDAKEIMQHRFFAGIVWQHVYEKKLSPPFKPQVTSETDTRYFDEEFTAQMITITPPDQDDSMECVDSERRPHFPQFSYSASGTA
Chain of MAPK14 (p38 alpha) (Q16539 whole entry): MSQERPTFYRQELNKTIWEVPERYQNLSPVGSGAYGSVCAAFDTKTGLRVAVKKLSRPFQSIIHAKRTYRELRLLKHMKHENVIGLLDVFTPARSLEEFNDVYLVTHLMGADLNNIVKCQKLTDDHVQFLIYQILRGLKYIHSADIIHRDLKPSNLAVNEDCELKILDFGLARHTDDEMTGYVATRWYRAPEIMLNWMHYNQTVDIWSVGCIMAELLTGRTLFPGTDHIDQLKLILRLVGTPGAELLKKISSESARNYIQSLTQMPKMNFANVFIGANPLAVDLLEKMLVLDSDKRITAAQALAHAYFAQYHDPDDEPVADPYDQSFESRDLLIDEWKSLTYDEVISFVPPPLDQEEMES

Take `Cc1ccc2c(NS(=O)(=O)c3ccccc3Cl)cccc2c1Oc1ncccc1-c1ccnc(N[C@H]2CCCNC2)n1` [KIRA8]: the IC50 in the experiment on IRE1α is 6 nM.
Regarding `CCOC(=O)CCc1c(C)n(C(=O)c2ccccc2)c2ccc(Br)cc12` [IAPD1], the “effect on IRE1α transcription level” value in experiment [1] is given as “minimal impacts; also recorded: not affected”; in experiment [4], “did not influence; also recorded: no obvious impact”. Further, the “inhibition of ER stress-induced XBP1 mRNA splicing” value in experiment [2] and in [3] was “inhibited” in each case. Moreover, the concentration for half-maximal inhibition (IC50) was found to be 160 nM in experiment [2] (Homo sapiens) and 220 nM in [3] (Homo sapiens).
On to `Cc1c(CCC(=O)O)c2cc(Br)ccc2n1C(=O)c1ccccc1` [IA107], for which the “IRE1β Kinase Displacement(%)” value at IRE1β (ERN2) (16700 μM as printed) is 87.04% and 84.54%. On IRE1β (ERN2) (LanthaScreen Eu kinase binding assay, read-out: IRE1β (ERN2) kinase domain IC50), the IC50 worked out at 1440 nM. The “selectivity for IRE1α over IRE1β” value on IRE1β (ERN2) (kinase binding IC50s) is listed as 2 fold. The inhibition at 5 µM at IRE1β (ERN2) (kinase profiling, ERN2, LanthaScreen Binding, IA107 at 5 μM) was 70%; against CAMK1D (CaMKI delta), 8%; against FGFR1, 4%; against LCK, 8%; on MAPK14 (p38 alpha) it was 6%; on PLK1 it was 3%. Besides, the inhibition at 5 µM on IKBKB (IKK beta) is 4%; against CHEK1 (CHK1) it was 10%; at MAPK8 (JNK1), -8%; at ERBB2 (HER2), -3%; on AKT1 (PKB alpha), 0%; against RET it was 9%. In addition, the inhibition at 5 µM was found to be 0% against KIT, 0% on STK4 (MST1), 1% at ROCK1 and 5% against INSR. Besides, at dephosphorylated IRE1α, the Kd came to 1360 nM.
